Assays:
[1] = test system: lambs with acute pulmonary hypertension; settings: inhaled microparticles, awake lambs, U-46619-induced pulmonary hypertension; cited from earlier work
[2] = target: T1, soluble guanylate cyclase (sGC) (Homo sapiens (Human), UniProt Q02108+Q02153); assay: sGC-HEK-cGMP assay with SNP incubation, LC/MS detection (Example 2A); type: cell-based; settings: HEK293 cells, 10 μM SNP, LC/MS detection; for Emax: 100% = BAY 41-2272 at 10 μM, read-out: HEK assay Emax - unconstrained (%)
Summary of the method: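 HEK293 cells with endogenous sGC were pretreated 15 min at 37 °C with 0.5 mM IBMX, then exposed 10 min at 37 °C to compound (added from 0.0001–30 μM solutions) plus SNP (from 10 μM solution). After 0.1 M HCl lysis, cGMP was quantified by LC/MS against a standard curve.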

[3] = target: T1, soluble guanylate cyclase (sGC); assay: sGC-HEK-cGMP assay with SNP incubation, HTRF detection (Example 2B); type: cell-based; settings: HEK293 cells, 10 μM SNP; for Emax: 100% = BAY 41-2272 at 10 μM + 100 μM SNP, read-out: HEK assay Emax - unconstrained (%); for EC50: read-out: HEK assay EC50 - unconstrained
Description: Human embryonic kidney cells (HEK293), endogenously expressing soluble guanylate cyclase (sGC), were used to evaluate the activity of test compounds. Compounds stimulating the sGC enzyme should cause an increase in the intracellular concentration of cGMP. HEK 293 cells were seeded in Dulbecco's Modification of Eagle's Medium supplemented with fetal bovine serum (10% final) and L-glutamine (2 mM final) in a 200 μL volume at a density of 1×10^5 cells/well in a poly-D-lysine coated 96 well flat bottom plate and grown overnight at 37° C. Medium was aspirated and cells were washed with 1× Hank's Buffered Saline Salt Solution (200 μL). Cells were then incubated for 15 minutes at 37° C. with 200 μL of a 0.5 mM 3-isobutyl-1-methylxanthine (IBMX) solution. Test article and sodium nitroprusside solutions were then added to the assay mixture (2 μL each) and the resulting mixture incubated at 37° C. for 10 minutes. After the 10 minute incubation, the assay mixture was aspirated and 0.1M HCl (200 μL) was added to the cells. The plate was incubated at 4° C. for 30 minutes in the 0.1M HCl to stop the reaction and lyse the cells. The plates were then centrifuged at 1,200 g for 5 minutes at room temperature. GMP levels were determined using a cGMP HTRF assay (Cisbio Product #62GM2PEC). For each sample, 5 uL of HEK assay supernatant was diluted 1:5 in HTRF kit assay diluent and transferred to a well of the assay plate, and the HTRF assay was performed according to the HTRF kit manufacturer's instructions. Sample calculations were performed using high and low controls, where high control was supernatant from HEK assay performed in the presence of 10 uM Bay 41-2272+100 uM SNP, and the low control was the supernatant from the HEK assay performed in the presence of vehicle. A cGMP standard solution was prepared in 0.1 M HCl and diluted in order to perform a cGMP standard curve using the HTRF assay. Using Mean Ratio data from the HTRF assay, sample date were normalized according to the equation: 100*(Sample−Low Control)/(High Control−Low Control). Data were fit to a 3-parameter log agonist dose response (Top (% EMax), Bottom, log EC50) using Graphpad (Prism Software). Data in Table 4 was obtained using this modified assay procedure. (x μM concentration for test article solution and 10 μM concentration for SNP solution; wherein x is one of the following concentrations: 30 μM, 10 μM, 3 μM, 1 μM, 0.3 μM, 0.1 μM, 0.03 μM, 0.01 μM, 0.003 μM, 0.001 μM, 0.0003 μM and 0.01 nM.

[4] = target: T1, soluble guanylate cyclase (sGC); assay: sGC-HEK-cGMP assay, new protocol with DETA-NONOate, LC/MS detection (Example 2C); type: cell-based; settings: read-out: Absolute EC50 (uM) - binned
Sprague-Dawley rats = assay: Blood pressure change in Sprague-Dawley rats (Example 4); type: in vivo, rat; settings: conscious male Sprague-Dawley rats, PO, 10 mg/kg
Description: Male rats (250-350 g body weight, supplied by Harlan Laboratories) were anesthetized with ketamine/xylazine and a heparinized saline fluid filled catheter implanted into the right femoral artery. The catheter was exteriorized between the scapula, capped, and the animal allowed to recover for at least 7 days post surgery prior to any compound testing. Prior to testing animals were maintained on normal diet, with free access to drinking water, under a 12 hour light-dark cycle.
On the day of experimentation, under inhaled isoflurane anesthesia, the catheter was uncapped and connected to a tether (Instech Labs) and pressure transducer (Harvard Apparatus). Blood pressure and heart rate were subsequently captured and analyzed with a dedicated data capture system (PowerLab, ADInstruments). Data sampling rates were set at 1 cycle per second. Once connected, each rat was allowed to recover from anesthesia and baseline blood pressure and heart rate levels were established in these conscious, freely-moving animals. Once baseline was established either vehicle (0.5% methylcellulose or 100% PEG400) or test article was administered orally (PO, 10 mg/kg) and the effects on blood pressure and heart rate monitored for up to 24 hours.
Data are reported as hourly averages and changes in blood pressure are calculated from subtracting individual baseline on an hourly basis.

[5] = top of curve not fitted to 100%, read-out: HEK assay EC50 - unconstrained
[6] = top of curve fitted to 100%, read-out: HEK assay EC50 - constrained

T1 sequence (Q02153 whole entry): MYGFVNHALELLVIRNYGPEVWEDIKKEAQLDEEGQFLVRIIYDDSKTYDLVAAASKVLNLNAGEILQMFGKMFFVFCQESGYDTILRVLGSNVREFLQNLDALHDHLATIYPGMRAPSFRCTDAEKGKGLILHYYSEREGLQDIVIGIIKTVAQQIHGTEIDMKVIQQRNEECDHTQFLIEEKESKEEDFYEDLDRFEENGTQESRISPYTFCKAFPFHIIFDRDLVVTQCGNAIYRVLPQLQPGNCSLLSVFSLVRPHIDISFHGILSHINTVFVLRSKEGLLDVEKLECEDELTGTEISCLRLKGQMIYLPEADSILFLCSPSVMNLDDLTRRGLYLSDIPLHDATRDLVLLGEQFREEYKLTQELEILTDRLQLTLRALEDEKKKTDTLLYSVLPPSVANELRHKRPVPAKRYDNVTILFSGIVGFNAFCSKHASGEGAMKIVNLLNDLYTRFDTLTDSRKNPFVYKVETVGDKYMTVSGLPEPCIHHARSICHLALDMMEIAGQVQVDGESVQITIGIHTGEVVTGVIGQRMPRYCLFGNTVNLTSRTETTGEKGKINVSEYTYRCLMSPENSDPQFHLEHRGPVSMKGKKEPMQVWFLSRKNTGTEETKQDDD
T1 sequence (Q02108 whole entry): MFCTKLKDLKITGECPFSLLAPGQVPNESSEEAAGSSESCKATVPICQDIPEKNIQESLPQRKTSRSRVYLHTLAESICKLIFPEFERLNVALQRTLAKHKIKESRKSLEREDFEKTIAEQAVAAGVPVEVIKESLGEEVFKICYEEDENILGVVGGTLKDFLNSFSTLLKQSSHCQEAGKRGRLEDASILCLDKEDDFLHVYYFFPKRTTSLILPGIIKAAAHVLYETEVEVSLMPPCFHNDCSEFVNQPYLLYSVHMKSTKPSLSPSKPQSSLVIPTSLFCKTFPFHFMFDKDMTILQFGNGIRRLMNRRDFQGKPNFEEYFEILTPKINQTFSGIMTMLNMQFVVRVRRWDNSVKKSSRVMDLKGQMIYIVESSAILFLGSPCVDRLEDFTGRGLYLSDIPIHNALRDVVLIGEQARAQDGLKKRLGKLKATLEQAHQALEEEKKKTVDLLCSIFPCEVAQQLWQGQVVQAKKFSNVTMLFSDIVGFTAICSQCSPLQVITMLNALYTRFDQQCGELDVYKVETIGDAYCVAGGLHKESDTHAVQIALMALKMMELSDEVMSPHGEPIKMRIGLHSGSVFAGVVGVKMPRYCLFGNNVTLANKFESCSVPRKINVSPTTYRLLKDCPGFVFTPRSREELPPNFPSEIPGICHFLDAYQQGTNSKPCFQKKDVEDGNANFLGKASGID

| Emax [3] | EC50 [3] | SMILES | pulmonary vasodilation [1] | Emax [2] | EC50 [2, 5] | EC50 [4] | EC50 [2, 6] | Rat Mean Arterial Pressure peak change from baseline at 10 mpk (Sprague-Dawley rats) |
| --- | --- | --- | --- | --- | --- | --- | --- | --- |
| – | – | Nc1nc(-c2nn(Cc3ccccc3F)c3ncccc23)ncc1C1CC1 [BAY 41-2272] | dose dependent pulmonary vasodilation | – | – | – | – | – |
| – | – | Nc1nc(-c2nn(Cc3ccccc3F)c3ncccc23)nc(N)c1N1CCOCC1 [BAY 41-8543] | dose dependent pulmonary vasodilation | – | – | – | – | – |
| – | – | O=C(O)CCCCN(CCc1ccccc1OCc1ccc(CCc2ccccc2)cc1)Cc1ccc(C(=O)O)cc1 [BAY 58-2667] | dose dependent pulmonary vasodilation | – | – | – | – | – |
| 80 to 100% | – | Fc1ccccc1Cn1nc(-c2ncc(F)c(N3CCOCC3)n2)cc1-c1ccon1 [Compound I-3] | – | 60 to 80% | – | – | – | – |
| 40 to 60% | 100 to 500 nM | N#Cc1cnc(-c2cc(-c3ccon3)n(Cc3ccccc3F)n2)nc1N1CCOCC1 [Compound I-29] | – | – | – | – | – | – |
| 80 to 100% | 100 to 500 nM | Fc1ccccc1Cn1nc(-c2ncc(F)c(NC3CCNCC3)n2)cc1-c1ccon1 [Compound I-36] | – | 40 to 60% | 1000 to 5000 nM | – | – | – |
| 80 to 100% | 500 to 1000 nM | COC(=O)Nc1nc(-c2cc(-c3ccon3)n(Cc3ccccc3F)n2)ncc1F [Compound I-51] | – | – | – | – | 1000 to 5000 nM | – |
| – | – | O=C(O)C1(c2ccccc2)CCN(c2nc(-c3cc(-c4ccon4)n(Cc4ccccc4F)n3)ncc2F)CC1 [Compound I-186] | – | 80 to 100% | 1 to 100 nM | < 0.1 µM | – | B (B = −20 ≤ peak change from baseline at 10 mpk ≤ −10) |
| – | – | CC(C)[C@@H](C(=O)NS(=O)(=O)C1CC1)N(C)c1nc(-c2cc(-c3ccon3)n(Cc3ccccc3F)n2)ncc1F [Compound I-187] | – | 80 to 100% | 1 to 100 nM | < 0.1 µM | – | A (A = −10 < peak change from baseline at 10 mpk < 0) |
| 80 to 100% | 1 to 100 nM | CC(C)[C@H](CN(C)c1nc(-c2cc(-c3ccon3)n(Cc3ccccc3F)n2)ncc1F)C(=O)O [Compound I-248] | – | 80 to 100% | 1 to 100 nM | – | – | C (C = peak change from baseline at 10 mpk < −20) |
| 100 to 120% | 500 to 1000 nM | CC1(C(=O)O)CCN(c2nc(-c3nc(-c4ccon4)n(Cc4ccccc4F)n3)ncc2F)CC1 [Compound I-249] | – | 60 to 80% | 1000 to 5000 nM | – | – | – |
| 80 to 100% | 1 to 100 nM | CC(C)[C@@H](CN(C)c1nc(-c2cc(-c3ccon3)n(Cc3ccccc3F)n2)ncc1F)C(=O)O [Compound I-253] | – | 60 to 80% | 1 to 100 nM | – | – | B (B = −20 ≤ peak change from baseline at 10 mpk ≤ −10) |
| 80 to 100% | 1 to 100 nM | O=C(O)[C@H]1[C@@H]2CN(c3nc(-c4cc(-c5ccon5)n(Cc5ccccc5F)n4)ncc3F)C[C@@H]21 [Compound I-271] | – | – | – | – | – | – |
| – | – | CC(C)C1(C(=O)O)CCN(c2nc(-c3cc(-c4ccon4)n(Cc4ccccc4F)n3)ncc2F)CC1 [Compound I-306] | – | 80 to 100% | 1 to 100 nM | < 0.1 µM | – | B (B = −20 ≤ peak change from baseline at 10 mpk ≤ −10) |

| SMILES | Emax [3] | EC50 [3] | pulmonary vasodilation [1] | Emax [2] | EC50 [2, 5] | EC50 [4] | EC50 [2, 6] | Rat Mean Arterial Pressure peak change from baseline at 10 mpk (Sprague-Dawley rats) |
| --- | --- | --- | --- | --- | --- | --- | --- | --- |
| Fc1ccccc1Cn1nc(-c2ncc(F)c(N3CCn4c(nnc4C(F)(F)F)C3)n2)cc1-c1ccon1 [Compound I-16] | 100 to 120% | 1 to 100 nM | – | 100 to 120% | 1 to 100 nM | < 0.1 µM | – | – |
| O=C(O)CNc1nc(-c2cc(-c3ccon3)n(Cc3ccccc3F)n2)ncc1F [Compound I-67] | 60 to 80% | 1000 to 5000 nM | – | 80 to 100% | 5000 to 10000 nM | > 1 µM | > 10000 nM | – |
| CC(C)[C@@H](C(=O)O)N(C)c1nc(-c2nc(-c3ccon3)n(Cc3ccccc3F)n2)ncc1F [Compound I-200] | 100 to 120% | 1000 to 5000 nM | – | 80 to 100% | 5000 to 10000 nM | > 1 µM | 1000 to 5000 nM | – |
| CC(C)C[C@H](C(=O)O)N(C)c1nc(-c2cc(-c3ccon3)n(Cc3ccccc3F)n2)ncc1F [Compound I-221] | 100 to 120% | 1000 to 5000 nM | – | 0 to 10% | > 10000 nM | < 0.1 µM | – | – |

Source: patent US10183021B2, “sGC stimulators” (Ironwood Pharmaceuticals, Inc., priority 2013, dated 2019)
